{
  "source": "patent US20250064886A1",
  "about": "“CARDIOVASCULAR AND CEREBROVASCULAR DRUG AND USE THEREOF” (HANGZHOU ADAMERCK PHARMLABS INC., priority 2021, published 2025)",
  "key": {"[1]": {"test_system": "arteriovenous bypass thrombosis in rats", "assay": "Arteriovenous bypass thrombosis in rats (Example 4)", "type": "in vivo, rat", "settings": "for Wet weight of thrombus / Dry weight of thrombus: in g (unit assumed)", "procedure": "Grouping: Divided into 5 groups, with 10 animals in each group. The model control group was given with solvent, and the test drug compound (1) and the positive control were given intravenously once a day for consecutive 3 d. The modeling started 30 min after the last dose.\nModel preparation: 50 SD male rats were anesthetized with sodium pentobarbital at a dose of 60 mg/kg via ip. The rat was fixed in the supine position, and the skin was incised at the midline of the neck; the fascia and muscle tissues were separated, the left common carotid artery and the right external jugular vein were dissociated, and the arterio-venous (A-V) bypass surgery was performed using the polyethylene tubing with a built-in thread. The arterial clip was used to clamp the proximal end of the carotid artery, and one end of the polyethylene tubing was inserted into the artery, and another end was inserted into the vein, thereby completing the bypass surgery. 30 minutes after the last dose, the arterial clip was opened, and blood flowed from the left common carotid artery to the right external jugular vein through the bypass tubing, and the blood flow formed a bypass circulation, and the thrombus was taken out 15 min later.\n(§1) Detection index: the blood flow was open after 15 min, the thread was taken out, the residual liquid was sucked dry, the thread attached with thrombus was weighed and the wet weight of thrombus was calculated; the dry weight of thrombus was weighed and calculated after bake-drying in the oven at 50° C. Thrombosis inhibition rate was calculated. Tails were clipped at the end of the experiment to detect bleeding time."}, "rats": {"test_system": "rats", "assay": "Bleeding time in rats, tail clipping (Example 4)", "type": "in vivo, rat", "procedure": "as §1, with “Grouping: Divided into 5 groups, with 10 animals in each group. […] The modeling started 30 min after the last dose. Detection” for “Detection”"}, "[2]": {"test_system": "vascular inflammation in high-glucose and high-fat zebrafish", "assay": "Regressive effect on vascular inflammation in high-glucose and high-fat zebrafish (Example 9)", "type": "in vivo", "procedure": "Experimental method: 360 tails of 5 dpf macrophage fluorescent zebrafish were randomly selected and placed in beakers with 30 tails in each beaker, compound (1), compound (3), and compound (5) were given intravenously, and the positive control group was given atorvastatin calcium by dissolving it in water at a concentration of 30 μg/mL, while the normal control group (fish farming water-treated zebrafish) and the model control group were set up, and the volume of each beaker (experimental group) was 25 mL. Except for the normal control group, all other groups were given high-lipids and high-sucrose feed by dissolving it in water. Compound (1), compound (3) and compound (5) group were co-treated with high-lipids and high-sucrose feed for 30 h. The treatment was carried out up to 9 dpf, and 10 zebrafish were randomly selected from each experimental group to collect the intensity of the macrophage fluorescence within the tail vein and around the tail vein of the zebrafish under fluorescence microscope, and the results of the statistical analysis were used to evaluate the regressive effect of compound (1), compound (3), compound (5) on zebrafish vascular inflammation in the high sugar and high fat model."}, "[3]": {"test_system": "vascular endothelial-injury thrombosis model in zebrafish", "assay": "Preventative effect of compound (1) on vascular endothelial injury induced thrombosis in zebrafish (Example 3)", "type": "in vivo", "settings": "for Cardiac erythrocyte staining intensity (pixels, mean ± SE): n = 10", "procedure": "Experimental method: Wild-type AB strain zebrafish were treated with 4 μg/mL punatinib for 18 h to establish vascular endothelial-injury thrombosis model in zebrafish. 150 of 5 dpf wild-type AB strain zebrafish were randomly selected and placed in six-well plates with 30 fish per well (experimental group). The zebrafish were injected with compound (1) at a dose of 2.06 ng/tail, and 6.18 ng/tail, and the positive control drug acetylsalicylic acid was given by dissolving it in water with a concentration of 30 µg/mL, while the normal control group (i.e., zebrafish treated with standard dilution water) and the model control group were set up, and the volume of each well (experimental group) was 3 mL. Except for normal control group, the remaining experimental groups were all given Punatinib by dissolving it in water to induce vascular endothelial injury thrombosis model in zebrafish. The zebrafish were co-treated with compound (1) and punatinib for a period of time under incubation condition at 28° C., and then stained with o-dianisidine. After staining, 10 zebrafish were randomly selected from each group and photographed under the microscope. The intensity of cardiac erythrocyte staining in zebrafish was analyzed using NIS-Elements D 3.10 advanced image-processing software, and the preventative effect of compound (I) on vascular endothelial injury thrombosis was evaluated based on the statistical results of cardiac erythrocyte staining intensity. The preventative effect on thrombosis is calculated as follows: […]\nStatistical analysis were performed using Analysis of Variance and Dunnett's t-test, and p<0.05 indicates a significant difference, providing a representative experimental plot."}, "[4]": {"test_system": "lipid ROS levels in Erastin-induced nerve cells", "assay": "Lipid ROS levels (C11-BODIPY probe) in Erastin-induced nerve cells (Example 8)", "type": "cell-based, rat", "settings": "Erastin 50 μM", "procedure": "Experimental method: Primary neuron cells were incubated in a medium containing Erastin (final concentration of 50 μM) for 24 hours, and then incubated in a medium containing different concentrations of the test drug and Erastin (final concentration of 50 μM) for another 24 hours. After incubation, Real time PCR was used to detect mRNA expression of GPX4 in each group of cells, CCK8 assay was used to detect cell viability in each group of cells, C11-BODIPY probe method was used to detect intracellular lipid ROS levels in each group of cells, and PGSK probe method was used to detect iron content in cells.\nThe experimental data were expressed in means±SD, and statistical differences between groups were determined using one-way ANOVA and Tukey's test, with p-values less than 0.05 considered significant.\nAfter incubation, the C11-BODIPY probe method was used to detect the lipid ROS levels in each group of cells. The results were presented as Mean±SD. Compared with the control group, ***p<0.0001; compared with the model group, #p<0.05, ##p<0.01."}},
  "note": "Marks after values point to notes of the source that are not given here.",
  "data": [
    {"smiles": "CC(=O)N[C@H](CSCC1OC2OC3C(CSC[C@@H](NC(C)=O)C(=O)[O-])OC(OC4C(CSC[C@@H](NC(C)=O)C(=O)[O-])OC(OC5C(CSC[C@@H](NC(C)=O)C(=O)[O-])OC(OC6C(CSC[C@@H](NC(C)=O)C(=O)[O-])OC(OC7C(CSC[C@@H](NC(C)=O)C(=O)[O-])OC(OC8C(CSC[C@@H](NC(C)=O)C(=O)[O-])OC(OC9C(CSC[C@@H](NC(C)=O)C(=O)[O-])OC(OC1C(O)C2O)C(O)C9O)C(O)C8O)C(O)C7O)C(O)C6O)C(O)C5O)C(O)C4O)C(O)C3O)C(=O)[O-].[Na+].[Na+].[Na+].[Na+].[Na+].[Na+].[Na+].[Na+]", "note": "(stereo partly shown) [Compound (1)]", "values": [
      {"measurement": "Dry weight inhibition rate (%)", "setting": "[1]; 10 mg/kg i.v.", "value": 15.9, "unit": "%"},
      {"measurement": "Wet weight inhibition rate (%)", "setting": "[1]; 10 mg/kg i.v.", "value": 19.4, "unit": "%"},
      {"measurement": "Wet weight of thrombus", "setting": "[1]; 10 mg/kg i.v. once a day 3 d, x ± s, n = 10", "value": "0.0254 ± 0.0042"},
      {"measurement": "Dry weight of thrombus", "setting": "[1]; 10 mg/kg i.v. once a day 3 d", "value": "0.0069 ± 0.0014"},
      {"measurement": "Dry weight inhibition rate (%)", "setting": "[1]; 20 mg/kg i.v.", "value": 26.8, "unit": "%"},
      {"measurement": "Wet weight inhibition rate (%)", "setting": "[1]; 20 mg/kg i.v.", "value": 21.9, "unit": "%"},
      {"measurement": "Dry weight of thrombus", "setting": "[1]; 20 mg/kg i.v. once a day 3 d", "value": "0.006 ± 0.0014"},
      {"measurement": "Wet weight of thrombus", "setting": "[1]; 20 mg/kg i.v. once a day 3 d", "value": "0.0246 ± 0.0045"},
      {"measurement": "Dry weight inhibition rate (%)", "setting": "[1]; 40 mg/kg i.v.", "value": 37.8, "unit": "%"},
      {"measurement": "Wet weight inhibition rate (%)", "setting": "[1]; 40 mg/kg i.v.", "value": 34.3, "unit": "%"},
      {"measurement": "Dry weight of thrombus", "setting": "[1]; 40 mg/kg i.v. once a day 3 d", "value": "0.0051 ± 0.0011"},
      {"measurement": "Wet weight of thrombus", "setting": "[1]; 40 mg/kg i.v. once a day 3 d", "value": "0.0207 ± 0.0041"},
      {"measurement": "Bleeding time", "setting": "rats; 10 mg/kg i.v., x ± s, n = 10", "value": "403.4 ± 185.1", "unit": "s"},
      {"measurement": "Bleeding time", "setting": "rats; 20 mg/kg i.v.", "value": "422.6 ± 205.7", "unit": "s"},
      {"measurement": "Bleeding time", "setting": "rats; 40 mg/kg i.v.", "value": "428.4 ± 185.6", "unit": "s"},
      {"measurement": "Effect on the bleeding time in rats, in words", "setting": "rats; intravenous, compared with model control group", "value": "no significant effect"},
      {"measurement": "Anti-inflammatory effect (%)", "setting": "[2]; 222 ng/tail intravenous", "value": "27*** %"},
      {"measurement": "Fluorescence intensity of perivascular macrophage (pixels, Mean ± SE)", "setting": "[2]; 222 ng/tail intravenous", "value": "134308 ± 6117", "unit": "pixels"},
      {"measurement": "Anti-inflammatory effect (%)", "setting": "[2]; 667 ng/tail intravenous", "value": "37*** %"},
      {"measurement": "Fluorescence intensity of perivascular macrophage (pixels, Mean ± SE)", "setting": "[2]; 667 ng/tail intravenous", "value": "116848 ± 5036", "unit": "pixels"},
      {"measurement": "Anti-inflammatory effect (%)", "setting": "[2]; 2000 ng/tail intravenous", "value": "41*** %"},
      {"measurement": "Fluorescence intensity of perivascular macrophage (pixels, Mean ± SE)", "setting": "[2]; 2000 ng/tail intravenous", "value": "108154 ± 4723", "unit": "pixels"},
      {"measurement": "Thromboprophylactic effect (%)", "setting": "[3]; 2.06 ng/tail", "value": 83, "unit": "%"},
      {"measurement": "Cardiac erythrocyte staining intensity (pixels, mean ± SE)", "setting": "[3]; 2.06 ng/tail", "value": "4601 ± 265", "unit": "pixels"},
      {"measurement": "Cardiac erythrocyte staining intensity (pixels, mean ± SE)", "setting": "[3]; 2.06 ng/tail, listed as compound (1)", "value": 4601, "unit": "pixels"},
      {"measurement": "Thromboprophylactic effect (%)", "setting": "[3]; 6.18 ng/tail", "value": 99, "unit": "%"},
      {"measurement": "Cardiac erythrocyte staining intensity (pixels, mean ± SE)", "setting": "[3]; 6.18 ng/tail", "value": "5044 ± 345", "unit": "pixels"},
      {"measurement": "Cardiac erythrocyte staining intensity (pixels, mean ± SE)", "setting": "[3]; 6.18 ng/tail, listed as compound (1)", "value": 5044, "unit": "pixels"},
      {"measurement": "Lipid ROS levels (%)", "setting": "[4]; 1 μM, control = 100, Mean±SD", "value": "150.18 ± 6.05^ %"},
      {"measurement": "Lipid ROS levels (%)", "setting": "[4]; 2.5 μM", "value": "142.58 ± 3.01^ %"},
      {"measurement": "Lipid ROS levels (%)", "setting": "[4]; 5 μM", "value": "137.9 ± 6.72", "unit": "%"},
      {"measurement": "Lipid ROS levels (%)", "setting": "[4]; 10 μM", "value": "132.33 ± 6.57^## %"},
      {"measurement": "Lipid ROS levels (%)", "setting": "[4]; 20 μM", "value": "121.82 ± 5.9^## %"},
      {"measurement": "Lipid ROS levels (%)", "setting": "[4]; 40 μM", "value": "114.13 ± 8.82^## %"}
    ]}
  ]
}
